One assay relates to 3T3-L1 cells. The assay can be described thus: Induction of adipocyte differentiation (amount of triglyceride biosynthesis). It counts as cell-based. The following applies: Mus musculus. As to the method: Induction of adipocyte differentiation was carried out by partially modifying the above-mentioned method of Rubin C. S. et al. In addition, as a test compound, a compound prepared in Examples mentioned above or a commercially available compound was used. 3T3-L1 cells (ATCC CCL-92.1) were suspended in a 10% fetal bovine serum (manufactured by Bio Whittaker)-containing Dulbecco's modified Eagle's medium (manufactured by Sigma, D6046) containing 200 μM ascorbic acid so as to have a density of 4×10^3 cells/mL, and the suspension was put in each well of a 12-well microtiter plate in an amount of 2 ml per well. The cells were cultured at 37° C. for 7 days in the presence of 5% carbon dioxide gas. On the seventh day, the medium was exchanged with a 10% fetal bovine serum (manufactured by Bio Whittaker)-containing Dulbecco's modified Eagle's medium containing 200 μM ascorbic acid and 0.25 μM dexamethasone, and a test compound dissolved in dimethyl sulfoxide in a concentration shown in each of Tables 16 to 19 was added to each well. Here, there were set a group with addition of 4 μL of an aqueous solution containing 5 mg/mL insulin (manufactured by TAKARA BIO INC.) as a positive control, and a group with addition of dimethyl sulfoxide as a negative control. After 45 hours, the medium was exchanged with a 10% fetal bovine serum-containing Dulbecco's modified Eagle's medium containing 200 μM ascorbic acid. A test compound, 2 μL of an aqueous solution containing 5 mg/mL insulin as a positive control, or dimethyl sulfoxide as a negative control was put to each well in the same concentration. The cells were cultured for additional 7 days. In addition, the medium was exchanged on after 2 days and after 5 days, and at that time, a test compound, 2 μL of an aqueous solution containing 5 mg/mL insulin as a positive control, or dimethyl sulfoxide as a negative control was put to each well in the same concentration.
The amount of triglyceride in the adipocytes was determined as an index of induction of differentiation into mature adipocytes, and also, as the evaluation of insulin-mimetic action.
After the termination of the culture, the medium was removed, and the cells were washed twice with a phosphate buffered saline. One milliliter of a solvent of hexane:isopropanol=3:2 was added to the cells. The mixture was allowed to stand at room temperature for 30 minutes, and thereafter the supernatant was collected. The procedures were repeated again, and 2 mL of the supernatant was concentrated to dryness. The precipitate was dissolved in 100 μL of isopropanol, and the amount of triglyceride contained in 10 μL of the solution was determined using a triglyceride E-test (manufactured by Wako Pure Chemical Industries, Ltd., code 432-40201). In addition, all the determinations were carried out twice. The action for induction of differentiation was calculated by the following calculation formula, and shown by four ranks of +++, ++, + and +/−. • S: Amount of triglyceride in the presence of a test compound; • N: Amount of triglyceride in the negative control; and • P: Amount of triglyceride in the positive control; X=(S−N)/(P−N) (Judgment of Action for Induction of Differentiation)

Assay [1] concerns mature adipocytes (3T3-L1 cells). The assay can be described thus: Enhancing action on glucose uptake (2-deoxyglucose) into mature adipocytes. It counts as cell-based. The following applies: Mus musculus. As for the experimental part: The induction of differentation into nature adipocytes was carried out by partially modifying the above-mentioned method of Rubin C. S. et al. 3T3-L1 cells (ATCC CCL-92.1) were suspended in a 10% fetal bovine serum (manufactured by Bio Whittaker)-containing Dulbecco's modified Eagle's medium (manufactured by Sigma, D6046) containing 200 μM ascorbic acid so as to have a density of 4×10^3 cells/mL, and the suspension was put in each well of a collagen type I-coated 12-well plate (Iwaki Glass Co., Ltd., code 4815-010) in an amount of 2 mL per well. The cells were cultured at 37° C. for 7 days in the presence of 5% carbon dioxide gas. On the seventh day, the medium was exchanged with 2 mL of a 10% fetal bovine serum (manufactured by Bio Whittaker)-containing Dulbecco's modified Eagle's medium containing 200 μM ascorbic acid, 0.25 μM dexamethasone, 10 μg/mL insulin (manufactured by TAKARA BIO INC.) and 0.5 mM 3-isobutyl-1-methylxanthine (manufactured by nacalai tesque, 19624-86). After 45 hours, the medium was exchanged with 2 mL of a 10% fetal bovine serum-containing Dulbecco's modified Eagle's medium containing 200 μM ascorbic acid and 5 μg/mL insulin. The medium was exchanged on after 2 days and 5 days, and the cells were cultured for 7 days, to give mature adipocytes.
As the evaluation of the enhancing action on glucose uptake, and also as the evaluation of the insulin-mimetic action, the amount of 2-deoxyglucose uptake into mature adipocytes during the stimulation of the test compound in the adipocytes was determined. As a test compound, a compound prepared in the Examples mentioned above or a commercially available compound was used.
After the termination of the culture, the medium was removed, and the cells were washed twice with a 0.1% (w/v) bovine serum albumin (manufactured by Sigma, A8022)-containing Dulbecco's modified Eagle's medium. Thereafter, 1 mL of the same medium containing a test compound in a concentration shown in each of Tables 20 to 23 was put to each well. The cells were cultured overnight at 37° C. in the presence of 5% carbon dioxide gas. Here, a group without containing the test compound was set as a negative control. After the overnight culture, the cells were washed twice with a HEPES buffer (140 mM NaCl, 5 mM KCl, 2.5 mM MgSO4, 1 mM CaCl2, 20 mM HEPES-Na (pH 7.4)). The amount 0.9 mL of the buffer containing a test compound in the same concentration was added to each well. The cells were cultured at 37° C. for 75 minutes. During the culture, as a positive control, there was set a group with addition of insulin to the well without addition of a test compound at a point 45 minutes passed so as to have a final concentration of 1 μg/mL. Thereafter, 100 μL of a HEPES buffer containing 0.5 μCi/mL 2-deoxy-[1,2-^3H(N)]-glucose (manufactured by PerkinElmer Life Sciences Inc., NET549A) and 1 mM 2-deoxyglucose (manufactured by nacalai tesque, 10722-11) was added thereto. The cells were cultured at 37° C. for additional 10 minutes. After the termination of the culture, the supernatant was removed, and the cells were washed three times with a phosphate buffer cooled to 4° C. Thereafter, 0.5 mL of a 1% Nonidet P-40-containing phosphate buffer was added to lyse the cells, whereby 2-deoxy-[1,2-^3H(N)]-glucose subjected to uptake into the cells was eluted. The radioactivity was determined with a liquid scintillation counter LS6500 (manufactured by Beckmann) using 25 μL of the supernatant with Ultima Gold (manufactured by PerkinElmer Life Sciences Inc., 6013329) as a scintillation cocktail. The enhancing action on glucose uptake was calculated by the following calculation formula, and shown by four ranks of +++, ++, + and +/−. • S: Amount of 2-deoxyglucose uptake in the presence of a test compound; • N: Amount of 2-deoxyglucose uptake in the negative control; and • P: Amount of 2-deoxyglucose uptake in the positive control; X=(S−N)/(P−N) (Judgment of Enhancing Action for 2-Deoxyglucose Uptake)

[2] abbreviates: 3T3-L1, 3 μM, X=(S−N)/(P−N) of amount of triglyceride, P=insulin positive control, read-out: Action for Induction of Differentiation.
Where [3] appears, read: 3T3-L1, 10 μM, X=(S−N)/(P−N) of amount of triglyceride, P=insulin positive control, read-out: Action for Induction of Differentiation.
Where [4] appears, read: 3T3-L1, 30 μM, X=(S−N)/(P−N) of amount of triglyceride, P=insulin positive control, read-out: Action for Induction of Differentiation.
Where [5] appears, read: 3T3-L1, X=(S−N)/(P−N) of amount of triglyceride, P=insulin positive control, read-out: Action for Induction of Differentiation.
Where [6] appears, read: 3T3-L1, read-out: Action for Induction of Differentiation.
Where [7] appears, read: 3T3-L1, 10 μM, X=(S−N)/(P−N) of 2-deoxyglucose uptake, P=insulin 1 μg/mL, read-out: Enhancing Action on Glucose Uptake.
Setting [8] is: 3T3-L1, 30 μM, X=(S−N)/(P−N) of 2-deoxyglucose uptake, P=insulin 1 μg/mL, read-out: Enhancing Action on Glucose Uptake.
[9] abbreviates: 3T3-L1, read-out: Enhancing Action on Glucose Uptake.

Activation data for 19 compounds are collected here from patent US20070092551A1, “Therapeutic agent” (TAKARA BIO INC., priority 2003, published 2007).

Like-named read-outs stand apart in the source and are kept apart here.

Turning to `CC(C)=CCC/C(C)=C/COc1ccc([C@@H]2CC(=O)c3c(O)cc(O)cc3O2)cc1` [4′-O-Geranylnaringenin], in the assay on 3T3-L1 cells (setting [2]), the activation at 3 µM was in the range of 30 to 60%. Besides, the activation at 10 µM with 3T3-L1 cells (setting [3]) was 60 to 100%. The activation at 30 µM in the assay with 3T3-L1 cells (setting [4]) is more than 100%.
For the compound `COc1ccc(C(C)=O)c(O)c1C` [Compound (C022), 2′-hydroxy-3′-methyl-4′-methoxyacetophenone], the activation at 13 µM in the assay on 3T3-L1 cells (setting [5]) is 15 to 30%.
`COc1ccc(C(=O)/C=C/c2ccc(O)cc2)c(O)c1C` [Compound (C023), 4,2′-dihydroxy-3′-methyl-4′-methoxychalcone]: in the assay on 3T3-L1 cells (3T3-L1, 4 μM, X=(S−N)/(P−N) of amount of triglyceride, P=insulin positive control, read-out: Action for Induction of Differentiation), the activation at 4 µM lay within 60 to 100%. In addition, the activation at 13 µM in the assay on 3T3-L1 cells (setting [5]) lay in the range of 60 to 100%.
Consider `COc1ccc2c(c1CC=C(C)C)OC(c1ccc(O)cc1)CC2=O` (stereo not shown) [Compound (C034), 7-methoxy-8-prenyl-4′-hydroxyflavanone], for which the activation at 3 µM in the assay with 3T3-L1 cells (setting [2]) was more than 100%. The activation at 10 µM in the assay on 3T3-L1 cells (setting [3]) was more than 100%.
As for `CC(=O)c1ccc(O)c(C/C=C(\C)CCC=C(C)C)c1O` [Compound (C036), 2′,4′-dihydroxy-3′-geranylacetophenone], the activation at 3 µM in the assay with 3T3-L1 cells (setting [2]) is 15 to 30%. In addition, in the assay with 3T3-L1 cells (setting [3]), the activation at 10 µM lay in the range of 60 to 100%.
On to `CC(=O)c1ccc(O)c(C/C=C(\C)CC/C=C(\C)CCC=C(C)C)c1O` [Compound (C051), 2′,4′-dihydroxy-3′-farnesylacetophenone], for which the activation at 30 µM in the assay on 3T3-L1 cells (setting [4]) lay within 60 to 100%.
As for `CC(=O)c1ccc(O)c(Cc2ccccc2)c1O` [Compound (C054), 2′,4′-dihydroxy-3′-benzylacetophenone], the activation at 3 µM in the assay on 3T3-L1 cells (setting [2]) was in the range of 15 to 30%. In addition, in the assay with 3T3-L1 cells (setting [3]), the activation at 10 µM was 30 to 60%.
As for `COc1ccc(C=O)c(O)c1CC=C(C)C` [Compound (C063), 2-hydroxy-3-prenyl-4-methoxybenzaldehyde], the activation at 3 µM in the assay on 3T3-L1 cells (setting [2]) lay in the range of 30 to 60%. For the same compound, in the assay with 3T3-L1 cells (setting [3]), the activation at 10 µM fell in the range of 60 to 100%. The activation at 30 µM in the assay with 3T3-L1 cells (setting [4]) is more than 100%.
For `CC(=O)c1ccccc1OCc1ccccc1` [Compound (C065), 2′-benzyloxyacetophenone], in the assay with 3T3-L1 cells (setting [6]), the activation at 3 µM lay in the range of 30 to 60%, the activation at 10 µM lay in the range of 60 to 100% and the activation at 30 µM was more than 100%.
As for `COc1ccc(C(=O)/C=C/C=C(C)C)c(O)c1CC=C(C)C` [Compound (C069), 1-(2-hydroxy-3-prenyl-4-methoxyphenyl)-5-methyl-2,4-hexadien-1-one], the activation at 3 µM with 3T3-L1 cells (setting [2]) was in the range of 30 to 60%. Also, in the assay on 3T3-L1 cells (setting [3]), the activation at 10 µM was more than 100%. In addition, the activation at 30 µM in the assay on 3T3-L1 cells (setting [4]) is more than 100%.
Consider `CC(=O)c1ccc(OCc2ccccc2)c(C/C=C(\C)CCC=C(C)C)c1O` [Compound (C070), 2′-hydroxy-3′-geranyl-4′-benzyloxyacetophenone], for which, in the assay on 3T3-L1 cells (setting [3]), the activation at 10 µM lay in the range of 30 to 60%. The activation at 30 µM in the assay with 3T3-L1 cells (setting [4]) lay within 60 to 100%.
In the case of `COc1ccc(C(=O)/C=C/c2ccc(O)cc2)c(O)c1C/C=C(\C)C/C=C/C(C)(C)O` [Compound (C081), 1-[2-hydroxy-3-(7-hydroxy-3,7-dimethyl-2,5-octadienyl)-4-methoxyphenyl]-3-(4-hydroxyphenyl)-2-propen-1-one], the activation at 3 µM with 3T3-L1 cells (setting [2]) was in the range of 60 to 100%. In addition, the activation at 10 µM in the assay on 3T3-L1 cells (setting [3]) is more than 100%. The activation at 30 µM in the assay with 3T3-L1 cells (setting [4]) is more than 100%.
In the case of `COc1ccc2c(c1C/C=C(\C)CCC=C(C)C)OC(c1ccc(O)cc1)CC2=O` (stereo not shown) [Compound (C082), 8-geranyl-4′-hydroxy-7-methoxyflavanone], the activation at 10 µM with 3T3-L1 cells (setting [3]) was 60 to 100%.
For `C/C=C(/C)C(=O)OC1Cc2c(ccc3ccc(=O)oc23)OC1(C)C` (stereo not shown) [Coumarin Compound B, 3′-angeloyloxy-3′,4′-dihydroseselin], in assay [1] (setting [7]), the activation at 10 µM was more than 100%. Also, the activation at 30 µM in assay [1] (setting [8]) is more than 100%.
For `C/C=C(/C)C(=O)OC1C(O)c2c(ccc3ccc(=O)oc23)OC1(C)C` (stereo not shown) [Coumarin Compound C, 3′-angeloyloxy-4′-hydroxy-3′,4′-dihydroseselin], the activation at 30 µM in assay [1] (setting [8]) is 30 to 60%.
Consider `CC(C)=CCCC1(C)C=Cc2c(ccc(C(=O)/C=C/c3ccc(O)cc3)c2O)O1` (stereo not shown) [Lespeol], for which the activation at 10 µM in assay [1] (setting [7]) is 60 to 100%. In addition, the activation at 30 µM in assay [1] (setting [8]) was 60 to 100%.
For `CCCCC1OC(=O)C2=CCCCC21` (stereo not shown) [Sedanolide], the activation at 10 µM in assay [1] (setting [7]) was 15 to 30%. Besides, the activation at 30 µM in assay [1] (setting [8]) fell in the range of 60 to 100%.
The matching figures for `COc1ccc(C(=O)/C=C/c2ccc(O)cc2)c(O)c1CC1C2(C)CCC(O2)C1(C)C` (stereo not shown) [TB7, 1-[3-(2,5-epoxy-2,6,6-trimethyl-cyclohexylmethyl)-2-hydroxy-4-methoxyphenyl]-3-(4-hydroxyphenyl)-2-propen-1-one]: more than 100% and more than 100%.
For `CCC/C=C1\OC(=O)c2ccccc21` [n-Butylidenephthalide], in assay [1] (setting [9]), the activation at 3 µM lay in the range of 30 to 60%, the activation at 10 µM was in the range of 60 to 100% and the activation at 30 µM is more than 100%.
